Results published in ChEMBL document CHEMBL3352132, “Synthesis, screening and docking of small heterocycles as glycogen phosphorylase inhibitors” (Eur J Med Chem, 2014).
Blank lines part the entries; values can stand above or below the compound they belong to. Active and inactive are the calls of the source. The rule behind the calls is not given here.

Experiments:
[1] = biological target: T1, Glycogen phosphorylase, muscle form (Oryctolagus cuniculus, UniProt P00489); assay: (§1) Inhibition of rabbit muscle glycogen phosphorylase a assessed as inhibition of release of phosphate from glucose-1-phosphate after 30 mins by spectrophotometry
T1 sequence (P00489 whole entry): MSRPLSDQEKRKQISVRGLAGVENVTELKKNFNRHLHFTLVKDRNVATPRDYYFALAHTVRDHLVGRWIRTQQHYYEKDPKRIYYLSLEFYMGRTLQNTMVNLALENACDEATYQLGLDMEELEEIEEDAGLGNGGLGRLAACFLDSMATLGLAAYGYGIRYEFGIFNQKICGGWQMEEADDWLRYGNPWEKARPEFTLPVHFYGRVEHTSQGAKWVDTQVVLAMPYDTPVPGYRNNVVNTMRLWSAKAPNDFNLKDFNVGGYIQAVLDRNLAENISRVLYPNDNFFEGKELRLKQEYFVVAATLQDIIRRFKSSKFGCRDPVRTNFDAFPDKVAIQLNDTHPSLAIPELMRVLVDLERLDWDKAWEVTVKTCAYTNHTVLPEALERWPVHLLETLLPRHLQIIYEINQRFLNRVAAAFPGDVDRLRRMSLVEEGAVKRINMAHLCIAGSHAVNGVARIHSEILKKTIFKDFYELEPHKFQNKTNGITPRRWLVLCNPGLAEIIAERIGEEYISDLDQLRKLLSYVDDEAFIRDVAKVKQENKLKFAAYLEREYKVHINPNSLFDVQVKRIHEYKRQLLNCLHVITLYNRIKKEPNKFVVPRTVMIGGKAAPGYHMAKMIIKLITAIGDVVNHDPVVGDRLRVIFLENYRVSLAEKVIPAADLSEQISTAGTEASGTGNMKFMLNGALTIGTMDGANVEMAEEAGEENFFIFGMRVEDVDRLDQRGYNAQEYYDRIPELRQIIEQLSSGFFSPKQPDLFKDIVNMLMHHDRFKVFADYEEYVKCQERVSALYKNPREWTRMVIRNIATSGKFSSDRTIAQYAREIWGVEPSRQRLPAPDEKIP

[2] = biological target: T2, Glycogen phosphorylase, muscle form (Oryctolagus cuniculus) (UniProt P00489); assay: Inhibition of rabbit muscle glycogen phosphorylase a assessed as inhibition of release of phosphate from glucose-1-phosphate at 111 mM after 30 mins by spectrophotometry
T2 sequence (whole entry): T1 sequence (P00489 whole entry)

[3] = biological target: T2, Glycogen phosphorylase, muscle form (Oryctolagus cuniculus); assay: Inhibition of rabbit muscle glycogen phosphorylase a assessed as inhibition of release of phosphate from glucose-1-phosphate at 222 mM after 30 mins by spectrophotometry
[4] = biological target: T2, Glycogen phosphorylase, muscle form (Oryctolagus cuniculus); assay: as §1
[5] = biological target: T2, Glycogen phosphorylase, muscle form (Oryctolagus cuniculus); assay: Inhibition of rabbit muscle glycogen phosphorylase a assessed as inhibition of release of phosphate from glucose-1-phosphate at 56 mM after 30 mins by spectrophotometry
[6] = biological target: T2, Glycogen phosphorylase, muscle form (Oryctolagus cuniculus); assay: Inhibition of rabbit muscle glycogen phosphorylase a assessed as inhibition of release of phosphate from glucose-1-phosphate at 22 mM after 30 mins by spectrophotometry

- IC50 [1]: 7.2 mM
SMILES: CC(C)N1CCCN=C1c1ccccc1

- inhibition [2]: 39%
SMILES: c1ccc(C2=NCCCO2)cc1

- IC50 [1]: 7.8 mM
SMILES: c1ccc(C2=NC3CCCCC3N2)cc1 (stereo unspecified)

- inhibition [3]: 20%
SMILES: NC(Cc1ccccc1)C(=O)N1CCOCC1 (stereo unspecified)

- Activity [4]: inactive
SMILES: O=C(NC(Cc1ccccc1)C(=O)N1CCOCC1)OCc1ccccc1 (stereo unspecified)

- IC50 [1]: 1.2 mM
SMILES: CC1(C)CN=C(c2ccccc2)NC1

- IC50 [1]: 1.4 mM
SMILES: c1ccc(C2=NCCCCO2)cc1

- inhibition [5]: 94%
SMILES: O=[N+]([O-])c1ccc(C2=NCCO2)cc1

- IC50 [1]: 0.025 mM
SMILES: COC(=O)[C@@H]1CSC(c2ccccc2)=N1

- inhibition [2]: 12%
SMILES: CC(C)(C)OC(=O)NC(CCC(=O)O)C(=O)N1CCOCC1 (stereo unspecified)

- inhibition [2]: 78%
SMILES: CC1CN=C(c2ccccc2)O1 (stereo unspecified)

- Activity [4]: inactive
SMILES: CC(C)CC(NC(=O)OCc1ccccc1)C(=O)N1CCOCC1 (stereo unspecified)

- inhibition [3]: 25%
SMILES: NC(CCC(=O)O)C(=O)N1CCOCC1 (stereo unspecified)

- IC50 [1]: 23.9 mM
SMILES: c1ccc(C2=NCCO2)cc1

- inhibition [3]: 5%
SMILES: O=C(NCCCCC(NC(=O)OCc1ccccc1)C(=O)N1CCOCC1)OCc1ccccc1 (stereo unspecified)

- IC50 [1]: 6.5 mM
SMILES: CC(C)CC(N)C(=O)N1CCOCC1 (stereo unspecified)

- IC50 [1]: 1.1 mM
SMILES: CC(C)(C)OC(=O)N1CCCN=C1c1ccccc1

- inhibition [3]: 99%
SMILES: c1ccc(C2=NCCCN2)cc1

- IC50 [1]: 3 mM
SMILES: c1ccc(C2=NCCCCN2)cc1

- Activity [4]: inactive
SMILES: NCCCCC(N)C(=O)N1CCOCC1 (stereo unspecified)

- inhibition [6]: 39%
SMILES: c1ccc(C2=NCCS2)cc1
